This is an account of results in paper PMC6385854, “Structural insights reveal a recognition feature for tailoring hydrocarbon stapled-peptides against the eukaryotic translation initiation factor 4E protein” (Chemical Science, 2019).

Like-named read-outs stand apart in the source and are kept apart here. Numbered stars: 1 amine (or outer) side, 2 acyl side, 3 side chain; on linkers, the order of the positions; unused ones are H or OH. Bridge positions count the residues as written; N and C are the ends. Square brackets hold non-standard residues; d marks the D form. Peptide text beside a SMILES is read from it. ξ: configuration not given here. ξαMeNle(6-ylidene) = CC(CCCC=[*:3])(N[*:1])C(=O)[*:2]; R5 = C=CCCC[C@@](C)(N)C(=O)O; S5 = C=CCCC[C@](C)(N)C(=O)O

The assay addresses T1, Human recombinant eIF4E protein (Homo sapiens, UniProt P06730).
T1 construct: V28-V217; made in house; host or cells: Escherichia coli BL21 (DE3)
Put plainly: Surface plasmon resonance binding of stapled-peptides to immobilized eIF4E. As to conditions: SPR; for kon: eIF4E (His tag or w/o tag) amine-coupled on CM5 chip, saturated with m7GTP, peptides 3 μM to 1.372 nM, 60 s injection, 120 s dissociation. The procedure:
Human recombinant eIF4E protein with His tag (eIF4E-His) and without tag (eIF4E w/o tag) were separately immobilized on a CM5 sensor chip through amine coupling using the same protocol. Each flow cell of a CM5 sensor chip was first activated by a 7 min injection (10 μl min^–1) of freshly prepared 1 : 1 50 mM NHS : 200 mM EDC. Diluted eIF4E in NaAc (pH 5.0), with m^7GTP present in ≥2 : 1 ratio to saturate eIF4E, was injected over the sensor chip surface at a flow rate of 10 μl min^–1. The remaining active coupling sites were blocked with a 7 min injection of 1 M ethanolamine at 10 μl min^–1. The immobilization level is ∼2500 RU for eIF4E w/o tag and ∼5000 RU for eIF4E-His separately. Running buffer for immobilization was HBS-EP+ (10 mM HEPES, 150 mM NaCl, 3 mM EDTA, 0.05% surfactant P20).
Before measurement, the system was primed with assay running buffer HBS-EP+ (10 mM HEPES, 150 mM NaCl, 3 mM EDTA, 0.05% surfactant P20), with 1 mM DTT and 3% DMSO. Peptides were prepared by 3-fold dilution from high concentration to low concentration (3 μM to 1.372 nM). Peptides at increasing concentrations were injected over the chip surface for 60 s. The exposure was followed by a dissociation phase of 120 s. The flow rate was 30 μl min^–1. Surface regeneration was done using 2 M NaCl 30 s at 30 μl min^–1. Each reaction cycle ended with 50% DMSO extra wash. The solvent correction curve was setup by adding varying amounts of 100% DMSO to 1.03× running buffer to generate a range of DMSO solutions (2.000%, 2.286%, 2.571%, 2.857%, 3.143%, 3.429%, 3.714% and 4.000% respectively). After removing reference (blank buffer) signal and adding solvent correction, kinetics and/or steady-state parameters were calculated with Biacore T200 evaluation software ver. 3.0.
On the technique in general: Surface plasmon resonance follows binding to a sensor surface in real time, without labels.

[1] abbreviates: Biacore T200, HBS-EP+ with 1 mM DTT, 3% DMSO, mean ± SEM from at-least two independent experiments, SEM, read-out: k on.
The mark [2] stands for this setting: Biacore T200, eIF4E on CM5 chip, m7GTP, HBS-EP+ with 1 mM DTT, 3% DMSO, mean ± SEM from at-least two independent experiments, SEM, read-out: K D, binding affinity (kinetic KD) measured as a ratio of koff/kon.
Setting [3] is: Biacore T200, eIF4E on CM5 chip, m7GTP, HBS-EP+ with 1 mM DTT, 3% DMSO, mean ± SEM from at-least two independent experiments, SEM, read-out: k off.
[4] abbreviates: mean ± SEM from at-least two independent experiments.
[5] abbreviates: mean ± SEM from at-least two independent experiments, SEM.
[6] abbreviates: Biacore T200, HBS-EP+ with 1 mM DTT, 3% DMSO, mean ± SEM from at-least two independent experiments, SEM.
Where [7] appears, read: Biacore T200, eIF4E on CM5 chip, m7GTP, HBS-EP+ with 1 mM DTT, 3% DMSO, mean ± SEM from at-least two independent experiments, SEM.
Setting [8] is: Biacore T200, eIF4E on CM5 chip, m7GTP, HBS-EP+ with 1 mM DTT, 3% DMSO, mean ± SEM from at-least two independent experiments, read-out: K D, binding affinity (kinetic KD) measured as a ratio of koff/kon.

T1 sequence (P06730 28-217): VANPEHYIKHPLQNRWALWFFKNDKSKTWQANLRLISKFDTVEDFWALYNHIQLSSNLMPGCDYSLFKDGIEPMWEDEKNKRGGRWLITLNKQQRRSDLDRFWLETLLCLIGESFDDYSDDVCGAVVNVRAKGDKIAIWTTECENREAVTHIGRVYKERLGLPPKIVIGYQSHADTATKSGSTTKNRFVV

Consider `CC(=O)N[C@@H](CCCCN)C(=O)N[C@@H](CCCCN)C(=O)N[C@@H](CCCNC(=N)N)C(=O)N[C@@H](Cc1ccc(O)cc1)C(=O)N[C@@H](CO)C(=O)N[C@@H](CCCNC(=N)N)C(=O)N[C@]1(C)CCCC=CCCC[C@](C)(C(=O)N[C@@H](Cc2ccccc2)C(N)=O)NC(=O)[C@H](CC(C)C)NC(=O)[C@H](CC(C)C)NC(=O)[C@H](CCC(N)=O)NC1=O` [sTIP-05] (Ac-KKRYSR[R5]QLL[R5]F-NH2; staple 7-11), for which the kon under setting [1] came out at 1.5e+07 M⁻¹ s⁻¹. The Kd under setting [2] amounted to 6.6 ± 0.7 nM. Moreover, under setting [3], the koff was determined as 0.094 ± 8e-05 s⁻¹. Further, the “RT, Residence Time measured as 1/koff” value reads like this: under setting [4], 10 s; under setting [5], 10.8 ± 0.9 s.

For `CC(=O)N[C@@H](CCCCN)C(=O)N[C@@H](CCCCN)C(=O)N[C@@H](CCCNC(=N)N)C(=O)N[C@@H](Cc1ccc(O)cc1)C(=O)N[C@@H](CO)C(=O)N[C@@H](CCCNC(=N)N)C(=O)N[C@@]1(C)CCCC=CCCC[C@@](C)(C(=O)N[C@@H](Cc2ccccc2)C(=O)N[C@@H](Cc2c[nH]c3ccccc23)C(N)=O)NC(=O)[C@H](CC(C)C)NC(=O)[C@H](CC(C)C)NC(=O)[C@H](CCC(N)=O)NC1=O` [sTIP-07] (Ac-KKRYSR[S5]QLL[S5]FW-NH2; staple 7-11), the kon under setting [1] was found to be 650000 ± 3e+09 M⁻¹ s⁻¹. Moreover, the Kd under setting [2] turned out to be 42.5 ± 0.5 nM. For the same compound, the koff under setting [3] amounted to 0.028 ± 1e-05 s⁻¹. Also, under setting [5], the “RT, Residence Time measured as 1/koff” value stood at 36.3 ± 1.0 s.

Turning to `CC(=O)N[C@@H](CCCCN)C(=O)N[C@@H](CCCCN)C(=O)N[C@@H](CCCNC(=N)N)C(=O)N[C@@H](Cc1ccc(O)cc1)C(=O)N[C@@H](CO)C(=O)N[C@@H](CCCNC(=N)N)C(=O)N[C@@]1(C)CCCC=CCCC[C@@](C)(C(=O)N[C@@H](Cc2ccccc2)C(=O)N[C@@H](CCCNC(=N)N)C(=O)N[C@@H](CCCNC(=N)N)C(=O)N[C@@H](CCCNC(=N)N)C(N)=O)NC(=O)[C@H](CC(C)C)NC(=O)[C@H](CC(C)C)NC(=O)[C@H](CCC(N)=O)NC1=O` [sTIP-09] (Ac-KKRYSR[S5]QLL[S5]FRRR-NH2; staple 7-11), the kon under setting [1] came to 2.2e+06 ± 3e+11 M⁻¹ s⁻¹. Also, under setting [2], the Kd amounted to 7.8 ± 1.9 nM. Further, the koff under setting [3] turned out to be 0.016 ± 3e-05 s⁻¹. The “RT, Residence Time measured as 1/koff” value is given as 68 s under setting [4] and 68.8 ± 13.8 s under setting [5].

As for `CC(=O)N[C@@H](CCCCN)C(=O)N[C@@H](CCCCN)C(=O)N[C@@H](CCCNC(=N)N)C(=O)N[C@@H](Cc1ccc(O)cc1)C(=O)N[C@@H](CO)C(=O)N[C@@H](CCCNC(=N)N)C(=O)N[C@@H](CCC(=O)O)C(=O)N[C@@H](CCC(N)=O)C(=O)N[C@@H](CC(C)C)C(=O)N[C@@H](CC(C)C)C(=O)N[C@@]1(C)CCCC=CCCC[C@@](C)(C(N)=O)NC(=O)[C@H](CCCNC(=N)N)NC(=O)[C@H](CCC(N)=O)NC(=O)[C@H](Cc2ccccc2)NC1=O` [sTIP-10] (Ac-KKRYSREQLL[S5]FQR[S5]-NH2; staple 11-15), the kon under setting [1] came out at 6.6e+06 ± 1e+11 M⁻¹ s⁻¹. The Kd under setting [2] turned out to be 4.3 ± 0.4 nM. Moreover, the koff under setting [3] was 0.026 ± 5e-05 s⁻¹. The “RT, Residence Time measured as 1/koff” value is, setting by setting: under setting [4], 39 s; under setting [5], 39.7 ± 3.1 s.

Regarding `CC(=O)N[C@@H](CCCNC(=N)N)C(=O)N[C@@H](Cc1ccc(O)cc1)C(=O)N[C@@H](CO)C(=O)N[C@@H](CCCNC(=N)N)C(=O)NC1(C)CCCC=CCCCC(C)(C(=O)N[C@@H](Cc2ccccc2)C(N)=O)NC(=O)[C@H](CC(C)C)NC(=O)[C@H](CC(C)C)NC(=O)[C@H](CCC(N)=O)NC1=O` (stereo partly drawn) [sTIP-12] (Ac-RYSR[ξαMeNle(6-ylidene)]QLL[ξαMeNle(6-ylidene)]F-NH2; staple 5-9), the kon under setting [1] is 420000 ± 1.9e+10 M⁻¹ s⁻¹. Moreover, the Kd under setting [2] is 397 ± 131 nM. Further, the koff under setting [3] came to 0.14 ± 0.002 s⁻¹. For the same compound, under setting [5], the “RT, Residence Time measured as 1/koff” value amounted to 7.1 ± 1.0 s.

As to `CC(=O)N[C@@H](Cc1ccc(O)cc1)C(=O)N[C@@H](CO)C(=O)N[C@@H](CCCNC(=N)N)C(=O)NC1(C)CCCC=CCCCC(C)(C(=O)N[C@@H](Cc2ccccc2)C(N)=O)NC(=O)[C@H](CC(C)C)NC(=O)[C@H](CC(C)C)NC(=O)[C@H](CCC(N)=O)NC1=O` (stereo partly drawn) [sTIP-13] (Ac-YSR[ξαMeNle(6-ylidene)]QLL[ξαMeNle(6-ylidene)]F-NH2; staple 4-8), the Kd runs as follows: (Binding affinity estimated (micromolar range), range over two independent experiments) 4000 to 36000 nM; (sensogram traces Fig. S2 E, F, experiment 1, read-out: Binding affinity estimated, first of two independent SPR experiments) 4000 nM; (sensogram traces Fig. S2 E, F, experiment 2, read-out: Binding affinity estimated, second of two independent SPR experiments) 36000 nM.

As to `CC(=O)N[C@@H](CCCNC(=N)N)C(=O)N[C@@H](Cc1ccc(O)cc1)C(=O)N[C@@H](CO)C(=O)N[C@@H](CCCNC(=N)N)C(=O)N[C@@]1(C)CCCC=CCCC[C@@](C)(C(=O)N[C@@H](CC(C)C)C(=O)N[C@@H](Cc2ccccc2)C(=O)N[C@@H](CCCNC(=N)N)C(N)=O)NC(=O)[C@H](CC(C)C)NC(=O)[C@H](CC(C)C)NC(=O)[C@H](CCC(N)=O)NC1=O` [sTIP-14] (Ac-RYSR[S5]QLL[S5]LFR-NH2; staple 5-9), the kon under setting [1] is 340000 ± 1.6e+10 M⁻¹ s⁻¹. Under setting [2], the Kd was 195 ± 49.7 nM. Besides, under setting [3], the koff amounted to 0.058 ± 0.00014 s⁻¹. The “RT, Residence Time measured as 1/koff” value under setting [5] worked out at 18.3 ± 4.5 s. For the same compound, for the setting “relative to sTIP-12”, the “Improvement in KD over sTIP-12” value is on record as 2 fold and the “Reduction in rate of dissociation (koff) over sTIP-12” value came out at 2 fold.

As for “Ac-KRYSR*QLL*F-NH2 (sidechain bridge or staple) [sTIP-11, sTIP-05 with K1 deleted]”, under setting [6], the kon is 2.3 ± 0.9 × 10^7 M^–1 s^–1. Besides, under setting [7], the “K D, binding affinity (kinetic KD) measured as a ratio of koff/kon” value (“K D, binding affinity … as a ratio of koff/kon” for short) is listed as 21.9 ± 3.8 nM and the koff was 4.6 ± 1.2 × 10^–1 s^–1. In addition, the “RT, Residence Time measured as 1/koff” value under setting [5] worked out at 2.3 ± 0.6 s. For the same compound, the “Binding to eIF4E in words (effect of N-terminal deletion from sTIP-05)” value (sequential deletion of the 1KKR3 sequence) was “little effect on binding”.

Turning to “Ac-RIIYSR*QLL*L&-NH2 (sidechain bridge or staple) [sTIP-08, 13mer stapled-peptide, sTIP-06 extended with Lys(ButPhI)]”, under setting [6], the kon is 6.2 ± 0.2 × 10^5 M^–1 s^–1. Under setting [7], the “K D, binding affinity … as a ratio of koff/kon” value worked out at 45.2 ± 0.6 nM and the koff was 2.8 ± 0.1 × 10^–2 s^–1. For the same compound, the “RT, Residence Time measured as 1/koff” value under setting [5] came out at 35.5 ± 1.3 s.

Take “Ac-RIIYSR*QLL*L-NH2 (sidechain bridge or staple) [sTIP-06]”: under setting [6], the kon is listed as 2.7 ± 0.7 × 10^8 M^–1 s^–1. For the same compound, under setting [7], the “K D, binding affinity … as a ratio of koff/kon” value came to 0.8 ± 0.1 nM and the koff is 2.2 ± 0.8 × 10^–1 s^–1. In addition, the Kd under setting [8] came to 0.8 nM. Further, under setting [4], the “RT, Residence Time measured as 1/koff” value came to 6 s. For the same compound, under setting [5], the “RT, Residence Time measured as 1/koff” value was determined as 6.0 ± 2.4 s.

As to “Ac-RYSREQLL*FQR*-NH2 (sidechain bridge or staple) [sTIP-15]”, the kon under setting [6] was 4.2 ± 2.3 × 10^6 M^–1 s^–1. Also, under setting [7], the “K D, binding affinity … as a ratio of koff/kon” value was determined as 54.8 ± 6.4 nM and the koff is recorded as 2.4 ± 1.5 × 10^–1 s^–1. Besides, the Kd under setting [8] was determined as 54 nM. Moreover, the “RT, Residence Time measured as 1/koff” value under setting [5] worked out at 6.7 ± 4.1 s. Besides, under “relative to sTIP-12”, the “Improvement in KD over sTIP-12” value is on record as 7 fold and the “Improvement in rate of association (kon) over sTIP-12” value was determined as 10 fold.
